Measurements from PubChem BioAssay (NCI).
Several values for one entry are separate records, joined by “and”; a condition that tells them apart may be missing. Equal entries are not always repeated.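 These data come from cells grown in 96-well plates and exposed to compound for 48 hours at five concentrations. At the GI50, growth is halved. TGI marks complete inhibition of growth.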

What was measured:
Experiment in all cases: NCI tumour cell line growth inhibition, 48 h
[1] = system: A498 renal
[2] = system: A549 NSCLC
[3] = system: DU-145 prostate
[4] = system: HOP-92 NSCLC
[5] = system: KM12 colon
[6] = system: NCI/ADR-RES ovarian
[7] = system: OVCAR-8 ovarian
[8] = system: RXF 393 renal
[9] = system: SNB-19 CNS
[10] = system: U251 CNS

Compound	GI50 [1] [µM]	TGI [1] [µM]	GI50 [2] [µM]	TGI [2] [µM]	TGI [3] [µM]	TGI [4] [µM]	GI50 [5]	TGI [5] [µM]	GI50 [6] [µM]	TGI [6] [µM]	GI50 [7]	TGI [7] [µM]	GI50 [8]	GI50 [9] [µM]	GI50 [10]	TGI [10] [µM]	GI50 [3] [µM]	GI50 [4] [µM]	TGI [8] [µM]	TGI [9] [µM]
CC(=O)O[C@@]12CO[C@@H]1C[C@H](O)[C@@]1(C)C(=O)[C@H](O)C3=C(C)[C@@H](OC(=O)[C@H](O)[C@@H](NC(=O)OC(C)(C)C)c4ccccc4)C[C@@](O)([C@@H](OC(=O)c4ccccc4)[C@H]21)C3(C)C	0.0518	56.1	0.00454	> 82.2	78.2	59.4	0.00708 µM and 0.0021 µM	> 62.2	0.68	9.76	0.0139 µM and 0.0138 µM	> 79.3	0.0252 µM and 0.0165 µM	0.00175	0.00244 µM and 0.00364 µM	28.3	–	–	–	–
CCOc1ccccc1NC(=O)c1cc2ccccc2cc1O	2.16	5.55	3.19	11.6	14.5	5.08	2.59 µM	7.15	3.13	14.2	3.16 µM	11.3	2.63 µM	4.28	3.11 µM	11.6	3.71	1.72	7.62	25.1
Nc1ccccc1-c1ccc([N+](=O)[O-])cc1	29	> 100	4.65	> 100	> 100	97.6	1.59 µM	11.4	26.2	> 100	63.4 µM	> 100	55.9 µM	24.2	40.7 µM	> 100	73.1	17.9	> 100	> 100
Cc1nc(-c2ccccc2)c(Cc2ccccc2O)c(=O)[nH]1	–	> 100	–	> 100	> 100	> 100	–	> 100	–	> 100	–	> 100	–	–	–	> 100	–	–	> 100	> 100
O=S(=O)(Cc1ccc(Cl)cc1Cl)c1ccc(Cl)cc1	0.317	16.3	0.693	> 100	16.1	> 92.5	0.372 µM	> 100	0.478	3.59	1.22 µM	> 100	1.4 µM	1.38	0.496 µM	> 100	1.74	20.8	7.55	> 100
O=c1cc(-c2ccccc2)oc2cc(O)c(O)c(O)c12	6.94	> 100	36.2	> 100	> 100	48.7	18.2 µM	62.5	16	44.6	46.5 µM	> 100	78.6 µM	30	11.1 µM	> 100	25.1	3.58	> 100	> 100
CCC1C(=O)OCc2c1cc1n(c2=O)Cc2cc3ccccc3nc2-1 (stereo unspecified)	–	49	–	> 100	> 30.9	> 100	–	> 100	–	> 64.7	–	> 70.9	–	–	–	> 43	–	–	> 94.9	> 100
